Patent US8946147B2 (priority 2010, dated 2015)
Values joined by “and” are separate entries in the source; they are usually repeats but may differ in a detail not shown here. Equal values may be shown once. Positions of bridges follow the written chain, without caps; N, C: chain ends. Non-standard residues stand in square brackets, D forms with d. Residues, ends and D or L forms follow the SMILES beside them. Chains are numbered I, II in the order given. *: point of attachment. Phe(4-NH2) = Nc1ccc(C[C@H](N)C(=O)O)cc1; X1 = NOCC(=O)*

Assays:
human insulin receptor = target: T1, human insulin receptor (Homo sapiens, UniProt P06213); assay: Insulin receptor binding assay (scintillation proximity competition); conditions: for % Activity of Insulin: Table 3A, in vitro binding
T1 construct: expressed in transfected cells; plasma membrane fragments

[1] = target: T2, insulin receptor (receptor transfected HEK293 cells) (Homo sapiens, UniProt P06213); assay: Insulin receptor phosphorylation assay; format: cell-based; conditions: for % Activity of Insulin: Table 3B, in vitro phosphorylation
T2 construct: expressed in transfected cells; host or cells: HEK293

IGF-1 Receptor [2] = target: T3, IGF-1 Receptor (Homo sapiens, UniProt P08069); assay: IGF-1 receptor binding assay (scintillation proximity competition); set-up: expressed in transfected cells; plasma membrane fragments; conditions: Table 9
IGF-1 Receptor [3] = target: T3, IGF-1 Receptor; assay: IGF-1 receptor phosphorylation assay; format: cell-based; set-up: expressed in transfected cells; host or cells: HEK293; conditions: Table 10
C57/Blk mice = assay: Comparative insulin tolerance test (blood glucose lowering) in mice; format: in vivo; conditions: C57 black mice
Excerpt: […]. […] […]. These in vivo results are consistent with the in vitro analysis.
[…]. […] […].

[4] = target: insulin B subtype receptor (IR-B) (Homo sapiens, UniProt P06213); assay: Phosphorylation assay at insulin B subtype receptor; conditions: Table 14
[5] = target: insulin A subtype receptor (IR-A) (Homo sapiens, UniProt P06213); assay: Phosphorylation assay at insulin A subtype receptor; conditions: Table 14
Sequence of insulin A subtype receptor (IR-A) (P06213 28-1370 isoform P06213-2 limits assumed): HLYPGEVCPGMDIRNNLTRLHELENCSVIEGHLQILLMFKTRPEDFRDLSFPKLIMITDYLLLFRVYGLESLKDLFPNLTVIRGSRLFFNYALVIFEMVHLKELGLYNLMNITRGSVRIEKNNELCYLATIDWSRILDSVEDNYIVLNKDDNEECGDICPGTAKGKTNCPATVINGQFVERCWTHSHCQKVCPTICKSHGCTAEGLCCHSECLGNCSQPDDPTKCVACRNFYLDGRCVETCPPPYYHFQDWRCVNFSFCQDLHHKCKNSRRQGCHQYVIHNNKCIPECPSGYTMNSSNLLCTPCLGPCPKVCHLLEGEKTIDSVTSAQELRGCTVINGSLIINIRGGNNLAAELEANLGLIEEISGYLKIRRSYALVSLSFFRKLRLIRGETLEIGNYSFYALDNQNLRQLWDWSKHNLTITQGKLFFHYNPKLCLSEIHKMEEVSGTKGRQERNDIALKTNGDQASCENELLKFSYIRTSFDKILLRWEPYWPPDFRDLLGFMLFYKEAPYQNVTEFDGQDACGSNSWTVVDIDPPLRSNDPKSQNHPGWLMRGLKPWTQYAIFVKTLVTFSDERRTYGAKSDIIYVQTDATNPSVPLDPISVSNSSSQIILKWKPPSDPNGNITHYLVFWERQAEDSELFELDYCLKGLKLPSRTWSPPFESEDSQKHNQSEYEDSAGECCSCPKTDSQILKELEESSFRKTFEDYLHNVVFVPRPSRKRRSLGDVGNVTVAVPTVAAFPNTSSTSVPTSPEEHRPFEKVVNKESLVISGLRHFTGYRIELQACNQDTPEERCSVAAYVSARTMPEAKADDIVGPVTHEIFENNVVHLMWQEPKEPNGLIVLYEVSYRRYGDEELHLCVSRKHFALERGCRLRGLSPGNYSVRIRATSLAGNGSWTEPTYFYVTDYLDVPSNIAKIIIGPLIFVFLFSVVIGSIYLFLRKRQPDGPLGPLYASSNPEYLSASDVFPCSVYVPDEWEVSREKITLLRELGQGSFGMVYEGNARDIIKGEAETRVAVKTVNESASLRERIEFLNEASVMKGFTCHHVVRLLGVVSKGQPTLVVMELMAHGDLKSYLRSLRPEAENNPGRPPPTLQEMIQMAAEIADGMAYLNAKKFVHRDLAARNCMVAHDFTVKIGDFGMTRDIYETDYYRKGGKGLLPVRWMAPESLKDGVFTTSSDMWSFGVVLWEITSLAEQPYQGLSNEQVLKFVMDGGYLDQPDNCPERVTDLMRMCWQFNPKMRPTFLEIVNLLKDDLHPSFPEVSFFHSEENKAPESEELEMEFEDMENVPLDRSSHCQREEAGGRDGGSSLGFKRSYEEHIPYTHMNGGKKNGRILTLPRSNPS
Sequence of insulin A subtype receptor (IR-A) (P06213 763-1382 partner limits assumed): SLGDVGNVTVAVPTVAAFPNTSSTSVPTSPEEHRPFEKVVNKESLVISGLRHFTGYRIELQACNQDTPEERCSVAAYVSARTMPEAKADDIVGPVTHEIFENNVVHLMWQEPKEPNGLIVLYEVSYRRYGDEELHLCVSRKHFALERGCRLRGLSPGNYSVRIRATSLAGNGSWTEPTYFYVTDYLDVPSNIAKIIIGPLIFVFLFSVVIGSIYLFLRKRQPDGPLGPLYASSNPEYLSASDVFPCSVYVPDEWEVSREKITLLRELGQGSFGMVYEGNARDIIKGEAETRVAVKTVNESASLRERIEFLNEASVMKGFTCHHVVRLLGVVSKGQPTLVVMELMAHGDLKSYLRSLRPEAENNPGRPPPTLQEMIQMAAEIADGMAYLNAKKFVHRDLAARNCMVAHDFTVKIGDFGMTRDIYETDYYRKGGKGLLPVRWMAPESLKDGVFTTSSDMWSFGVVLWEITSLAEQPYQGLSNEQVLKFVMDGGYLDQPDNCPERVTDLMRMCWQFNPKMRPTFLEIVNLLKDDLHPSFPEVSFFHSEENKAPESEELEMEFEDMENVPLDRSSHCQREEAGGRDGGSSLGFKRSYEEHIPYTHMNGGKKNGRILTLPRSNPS

T1 sequence (P06213 28-758 limits assumed): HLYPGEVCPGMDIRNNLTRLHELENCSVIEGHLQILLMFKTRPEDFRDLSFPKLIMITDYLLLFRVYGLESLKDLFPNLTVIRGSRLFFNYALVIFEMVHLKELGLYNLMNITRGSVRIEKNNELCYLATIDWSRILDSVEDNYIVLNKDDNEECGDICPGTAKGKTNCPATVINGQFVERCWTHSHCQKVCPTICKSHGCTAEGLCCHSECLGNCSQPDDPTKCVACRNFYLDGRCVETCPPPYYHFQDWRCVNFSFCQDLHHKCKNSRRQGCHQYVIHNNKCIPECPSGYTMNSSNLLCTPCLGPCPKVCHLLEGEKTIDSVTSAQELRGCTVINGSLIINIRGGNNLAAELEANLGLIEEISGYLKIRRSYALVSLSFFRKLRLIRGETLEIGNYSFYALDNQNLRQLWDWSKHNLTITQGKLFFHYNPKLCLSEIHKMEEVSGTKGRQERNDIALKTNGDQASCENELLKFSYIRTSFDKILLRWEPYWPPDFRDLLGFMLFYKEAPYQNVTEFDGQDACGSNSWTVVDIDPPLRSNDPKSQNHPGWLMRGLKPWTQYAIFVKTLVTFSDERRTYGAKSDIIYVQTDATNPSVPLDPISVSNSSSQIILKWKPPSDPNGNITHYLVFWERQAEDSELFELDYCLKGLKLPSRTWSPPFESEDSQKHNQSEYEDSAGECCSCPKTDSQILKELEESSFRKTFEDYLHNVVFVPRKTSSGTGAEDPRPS
T1 sequence (P06213 763-1382 partner limits assumed): as the sequence (P06213 763-1382 partner limits assumed) above
T2 sequence (P06213 28-758 limits assumed): as the sequence (P06213 28-758 limits assumed) above
T2 sequence (P06213 763-1382 partner limits assumed): as the sequence (P06213 763-1382 partner limits assumed) above
T3 sequence (P08069 31-736 limits assumed): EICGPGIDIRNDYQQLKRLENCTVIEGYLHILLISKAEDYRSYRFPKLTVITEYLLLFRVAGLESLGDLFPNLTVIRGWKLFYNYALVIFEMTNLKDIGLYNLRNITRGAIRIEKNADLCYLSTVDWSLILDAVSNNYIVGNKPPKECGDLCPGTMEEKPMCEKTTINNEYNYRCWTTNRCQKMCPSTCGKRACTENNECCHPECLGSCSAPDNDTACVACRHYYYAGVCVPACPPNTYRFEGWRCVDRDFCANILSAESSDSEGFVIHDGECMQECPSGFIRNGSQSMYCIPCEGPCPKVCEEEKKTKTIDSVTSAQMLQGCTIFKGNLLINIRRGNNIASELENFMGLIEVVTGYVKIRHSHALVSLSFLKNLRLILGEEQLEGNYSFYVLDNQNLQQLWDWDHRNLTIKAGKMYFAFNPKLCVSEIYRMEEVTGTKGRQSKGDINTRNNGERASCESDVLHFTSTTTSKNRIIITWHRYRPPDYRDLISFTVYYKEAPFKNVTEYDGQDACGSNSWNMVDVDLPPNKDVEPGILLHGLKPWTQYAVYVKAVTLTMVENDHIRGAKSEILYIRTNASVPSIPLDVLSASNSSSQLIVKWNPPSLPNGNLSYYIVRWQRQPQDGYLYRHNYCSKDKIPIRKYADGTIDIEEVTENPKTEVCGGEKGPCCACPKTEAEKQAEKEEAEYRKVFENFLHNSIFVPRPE
T3 sequence (P08069 741-1367 partner limits assumed): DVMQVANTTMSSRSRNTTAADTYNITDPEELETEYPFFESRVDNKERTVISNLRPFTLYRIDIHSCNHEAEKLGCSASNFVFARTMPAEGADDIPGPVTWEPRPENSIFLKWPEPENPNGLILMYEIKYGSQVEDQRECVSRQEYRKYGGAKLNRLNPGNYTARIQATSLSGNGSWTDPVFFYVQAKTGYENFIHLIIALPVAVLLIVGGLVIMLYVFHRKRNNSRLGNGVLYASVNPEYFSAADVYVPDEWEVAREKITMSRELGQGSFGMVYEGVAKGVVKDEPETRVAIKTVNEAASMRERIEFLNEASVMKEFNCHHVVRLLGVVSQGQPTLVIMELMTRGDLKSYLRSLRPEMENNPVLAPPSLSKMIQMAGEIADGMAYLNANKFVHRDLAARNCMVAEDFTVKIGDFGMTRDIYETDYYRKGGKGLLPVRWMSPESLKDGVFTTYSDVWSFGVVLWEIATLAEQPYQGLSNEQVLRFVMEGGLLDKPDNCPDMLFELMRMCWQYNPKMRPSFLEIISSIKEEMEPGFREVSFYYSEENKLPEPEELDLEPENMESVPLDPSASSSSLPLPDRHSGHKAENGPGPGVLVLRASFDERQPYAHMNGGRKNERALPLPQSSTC
Sequence of insulin B subtype receptor (IR-B) (P06213 28-758 limits assumed): as the sequence (P06213 28-758 limits assumed) above
Sequence of insulin B subtype receptor (IR-B) (P06213 763-1382 partner limits assumed): as the sequence (P06213 763-1382 partner limits assumed) above

CC[C@H](C)[C@H](NC(=O)CN)C(=O)N[C@H](C(=O)N[C@@H](CC(=O)O)C(=O)N[C@@H](CCC(=O)O)C(=O)N[C@H]1CSSC[C@@H]2NC(=O)[C@H](CO)NC(=O)[C@H](C)NC(=O)[C@H](Cc3c[nH]cn3)NC(=O)[C@H](CSSC[C@H](NC(=O)[C@H](CC(C)C)NC(=O)[C@H](Cc3c[nH]cn3)NC(=O)[C@H](CCC(=O)O)NC(=O)[C@@H]3CCCN3C(=O)CN)C(=O)NCC(=O)N[C@@H](C)C(=O)N[C@@H](CC(=O)O)C(=O)N[C@@H](CC(C)C)C(=O)N[C@@H](C(C)C)C(=O)N[C@@H](CC(=O)O)C(=O)N[C@@H](C)C(=O)N[C@@H](CC(C)C)C(=O)N[C@@H](Cc3ccc(O)cc3)C(=O)N[C@@H](CC(C)C)C(=O)N[C@@H](C(C)C)C(=O)N[C@H](C(=O)NCC(=O)N[C@@H](CC(=O)O)C(=O)N[C@@H](C)C(=O)NCC(=O)N[C@@H](Cc3ccccc3)C(=O)N[C@@H](Cc3ccc(O)cc3)C(N)=O)CSSC[C@@H](C(=O)N[C@@H](CC(N)=O)C(=O)O)NC(=O)[C@H](Cc3ccc(O)cc3)NC(=O)[C@H](CC[S+](C)[O-])NC(=O)[C@H](CCC(=O)O)NC(=O)[C@H](CC(C)C)NC(=O)[C@H](CCCNC(=N)N)NC(=O)[C@H](CCCNC(=N)N)NC(=O)[C@H](CC(C)C)NC(=O)[C@H](CC(=O)O)NC2=O)NC1=O)C(C)C (stereo partly shown)
Insulin Receptor % insulin (in test) (human insulin receptor; Table 9): 400.7%

CC[C@H](C)[C@H](NC(=O)CNC(=O)[C@@H]1CCCN1C(=O)[C@H](C)N)C(=O)N[C@H](C(=O)N[C@@H](CC(=O)O)C(=O)N[C@@H](CCC(=O)O)C(=O)N[C@H]1CSSC[C@@H]2NC(=O)[C@H](CO)NC(=O)[C@H](CCCNC(=N)N)NC(=O)[C@H](Cc3ccccc3)NC(=O)[C@H](CSSC[C@H](NC(=O)[C@H](CC(C)C)NC(=O)[C@@H](NC(=O)[C@H](CCC(=O)O)NC(=O)[C@@H]3CCCN3C(=O)CN)[C@@H](C)O)C(=O)NCC(=O)N[C@@H](C)C(=O)N[C@@H](CCC(=O)O)C(=O)N[C@@H](CC(C)C)C(=O)N[C@@H](C(C)C)C(=O)N[C@@H](CC(=O)O)C(=O)N[C@@H](C)C(=O)N[C@@H](CC(C)C)C(=O)N[C@@H](Cc3ccc(O)cc3)C(=O)N[C@@H](CC(C)C)C(=O)N[C@@H](C(C)C)C(=O)N[C@H](C(=O)NCC(=O)N[C@@H](CC(=O)O)C(=O)N[C@@H](CCCNC(=N)N)C(=O)NCC(=O)N[C@@H](Cc3ccccc3)C(=O)N[C@@H](Cc3ccc(O)cc3)C(=O)N[C@@H](Cc3ccccc3)C(=O)N[C@@H](CC(N)=O)C(=O)N[C@@H](CCCCN)C(=O)N3CCC[C@H]3C(=O)N[C@H](C(N)=O)[C@@H](C)O)CSSC[C@@H](C(=O)N[C@@H](C)C(N)=O)NC(=O)[C@H](Cc3ccc(O)cc3)NC(=O)[C@H](CCSC)NC(=O)[C@H](CCC(=O)O)NC(=O)[C@H](CC(C)C)NC(=O)[C@H](CCCNC(=N)N)NC(=O)[C@H](CCCNC(=N)N)NC(=O)[C@H](CC(C)C)NC(=O)[C@H](CC(=O)O)NC2=O)NC1=O)C(C)C [IGF1(YL)A-1, 0^B16, 17(AlaPro)]
% of Insulin Activity (human insulin receptor; Table 8): 37.12%
insulin receptor binding (in words) (human insulin receptor; relative to native insulin): substantially reduced affinity for the insulin receptor

CC[C@H](C)[C@H](NC(=O)CN)C(=O)N[C@H](C(=O)N[C@@H](CC(=O)O)C(=O)N[C@@H](CCC(=O)O)C(=O)N[C@@H](C)C(=O)N[C@@H](C)C(=O)N[C@@H](Cc1ccccc1)C(=O)N[C@@H](CCCNC(=N)N)C(=O)N[C@@H](CO)C(=O)N[C@@H](C)C(=O)N[C@@H](CC(=O)O)C(=O)N[C@@H](CC(C)C)C(=O)N[C@@H](CCCNC(=N)N)C(=O)N[C@@H](CCCNC(=N)N)C(=O)N[C@@H](CC(C)C)C(=O)N[C@@H](CCC(=O)O)C(=O)N[C@@H](CCSC)C(=O)N[C@@H](Cc1ccc(NC(=O)[C@@H]2CCCN2C(=O)C(C)(C)N)cc1)C(=O)N[C@@H](C)C(=O)N[C@@H](C)C(N)=O)C(C)C [Aib Pro] (HELM PEPTIDE1{G.I.V.D.E.A.A.F.R.S.A.D.L.R.R.L.E.M.[O=C([C@H](Cc1ccc(N[*:3])cc1)N[*:1])[*:2]].A.A.[am]}|PEPTIDE2{[Aib].P}$PEPTIDE1,PEPTIDE2,19:R3-2:R2$$$V2.0)
Half Life, 20% Plasma/PBS: 2.1 h

CC[C@H](C)[C@H](NC(=O)CN)C(=O)N[C@H](C(=O)N[C@@H](CC(=O)O)C(=O)N[C@@H](CCC(=O)O)C(=O)N[C@H]1CSSC[C@@H]2NC(=O)[C@H](CO)NC(=O)[C@H](C)NC(=O)[C@H](Cc3c[nH]cn3)NC(=O)[C@H](CSSC[C@H](NC(=O)[C@H](CC(C)C)NC(=O)[C@H](Cc3c[nH]cn3)NC(=O)[C@H](CCC(=O)O)NC(=O)[C@@H]3CCCN3C(=O)CN)C(=O)NCC(=O)N[C@@H](C)C(=O)N[C@@H](CC(=O)O)C(=O)N[C@@H](CC(C)C)C(=O)N[C@@H](C(C)C)C(=O)N[C@@H](CC(=O)O)C(=O)N[C@@H](C)C(=O)N[C@@H](CC(C)C)C(=O)N[C@@H](Cc3ccc(O)cc3)C(=O)N[C@@H](CC(C)C)C(=O)N[C@@H](C(C)C)C(=O)N[C@H](C(=O)NCC(=O)N[C@@H](CC(=O)O)C(=O)N[C@@H](CCCNC(=N)N)C(=O)NCC(=O)N[C@@H](Cc3ccccc3)C(=O)N[C@@H](Cc3ccc(O)cc3)C(N)=O)CSSC[C@@H](C(=O)N[C@@H](CC(N)=O)C(=O)O)NC(=O)[C@H](Cc3ccc(O)cc3)NC(=O)[C@H](CCSC)NC(=O)[C@H](CCC(=O)O)NC(=O)[C@H](CC(C)C)NC(=O)[C@H](CCCNC(=N)N)NC(=O)[C@H](CCCNC(=N)N)NC(=O)[C@H](CC(C)C)NC(=O)[C@H](CC(=O)O)NC2=O)NC1=O)C(C)C
Insulin Receptor % Insulin ([1]; Table 10, listed as IGF-1 A (H8 A9 N21) B (H5D10Y16L17) DPI A-COOH): 840% and 1080%
IGF-1 Receptor % IGF-1 (in test) (IGF-1 Receptor [2]): 12.9%
IGF-1 Receptor % IGF (IGF-1 Receptor [3]): 181.395%
Ratio (human insulin receptor; Table 9, IGF-1 receptor IC50 / insulin receptor IC50): 80.6

CC[C@H](C)[C@H](NC(=O)CN)C(=O)N[C@H](C(=O)N[C@@H](CC(=O)O)C(=O)N[C@@H](CCC(=O)O)C(=O)N[C@@H](C)C(=O)N[C@@H](C)C(=O)N[C@@H](Cc1ccccc1)C(=O)N[C@@H](CCCNC(=N)N)C(=O)N[C@@H](CO)C(=O)N[C@@H](C)C(=O)N[C@@H](CC(=O)O)C(=O)N[C@@H](CC(C)C)C(=O)N[C@@H](CCCNC(=N)N)C(=O)N[C@@H](CCCNC(=N)N)C(=O)N[C@@H](CC(C)C)C(=O)N[C@@H](CCC(=O)O)C(=O)N[C@@H](CCSC)C(=O)N[C@@H](Cc1ccc(NC(=O)CN(C)C(=O)[C@@H](N)CCCCN)cc1)C(=O)N[C@@H](C)C(=O)N[C@@H](C)C(N)=O)C(C)C [K Sar] (HELM PEPTIDE1{G.I.V.D.E.A.A.F.R.S.A.D.L.R.R.L.E.M.[O=C([C@H](Cc1ccc(N[*:3])cc1)N[*:1])[*:2]].A.A.[am]}|PEPTIDE2{K.[Sar]}$PEPTIDE1,PEPTIDE2,19:R3-2:R2$$$V2.0)
Half Life, 20% Plasma/PBS: 5.9 h

B^1(Y16,L17,Y25)29a: A^1(dLys(Ac),Sar-aF19) [MIU30]
% Activity of Insulin ([1]; incubated 1 hr in 20% plasma): 23.0%
% Activity of Insulin ([1]; incubated 3 hr in 20% plasma): 26.8%
% Activity of Insulin ([1]; incubated 6 hr in 20% plasma): 32.5%
% Activity of Insulin ([1]; incubated 9 hr in 20% plasma): 41.1%
% Activity of Insulin ([1]; incubated […] in 20% plasma): 43.2%
blood glucose (differential AUC vs vehicle, 8 hr) (C57/Blk mice; 90 nmol/kg): little change in glucose
blood glucose (differential AUC vs vehicle, 8 hr) (C57/Blk mice; 270 nmol/kg): glucose lowering
% Activity of Insulin (human insulin receptor; incubated 0 hr in 20% plasma/PBS at 37° C.): 34.44%
% Activity of Insulin (human insulin receptor; incubated 9 hr in 20% plasma/PBS at 37° C.): 100.09%
% Activity of Insulin (human insulin receptor; incubated 95 hr in 20% plasma/PBS at 37° C.): 115.42%

I: X1-GPEHLCGAHLVDALYLVCGDRGFY-NH2 / II: H-GIVDECCFRSCDLRRLEN[Phe(4-NH2)]CN-OH (disulfide I:6-II:7, I:18-II:20, II:6-II:11) [Unpegylated pNH2F, B^1Aoa2(H5, H10,Y16,L17)25a: A^1(pNH2—F19, N18, N21]
% (of insulin) [4]: 48%
% (of insulin) [5]: 81%

CC[C@H](C)[C@H](NC(=O)CN)C(=O)N[C@H](C(=O)N[C@@H](CC(=O)O)C(=O)N[C@@H](CCC(=O)O)C(=O)N[C@@H](C)C(=O)N[C@@H](C)C(=O)N[C@@H](Cc1ccccc1)C(=O)N[C@@H](CCCNC(=N)N)C(=O)N[C@@H](CO)C(=O)N[C@@H](C)C(=O)N[C@@H](CC(=O)O)C(=O)N[C@@H](CC(C)C)C(=O)N[C@@H](CCCNC(=N)N)C(=O)N[C@@H](CCCNC(=N)N)C(=O)N[C@@H](CC(C)C)C(=O)N[C@@H](CCC(=O)O)C(=O)N[C@@H](CCSC)C(=O)N[C@@H](Cc1ccc(NC(=O)[C@H]2CCCN2C(=O)C(C)(C)N)cc1)C(=O)N[C@@H](C)C(=O)N[C@@H](C)C(N)=O)C(C)C [Aib dPro] (HELM PEPTIDE1{G.I.V.D.E.A.A.F.R.S.A.D.L.R.R.L.E.M.[O=C([C@H](Cc1ccc(N[*:3])cc1)N[*:1])[*:2]].A.A.[am]}|PEPTIDE2{[Aib].[dP]}$PEPTIDE1,PEPTIDE2,19:R3-2:R2$$$V2.0)
Half Life, 20% Plasma/PBS: 2.2 h
